Test results: patent publication US9980943B2, “Methods of treating muscular dystrophy” (BOARD OF REGENTS OF THE NEVADA SYSTEM OF HIGHER EDUCATION, …, priority 2013, dated 2018)
Like-named read-outs stand apart in the source and are kept apart here.

System: α7 integrin (LacZ reporter in α7LacZ+/− myoblasts)
Experiment: qHTS of the LOPAC library and MLSMR (online screen, α7LacZ+/− myoblasts)
Settings: for activation at 0.307 µM / activation at 1.53 µM / activation at 7.66 µM / activation at 38.3 µM / Emax / EC50: Mus musculus, Myoblast; for activation at 0.307 µM: read-out: Activity at 0.307 uM [%] **; for activation at 1.53 µM: read-out: Activity at 1.530 uM [%] **; for activation at 7.66 µM: read-out: Activity at 7.660 uM [%] **; for activation at 38.3 µM: read-out: Activity at 38.30uM [%] **; for EC50: read-out: Fit LogAC50 (converted)
[1] = 48 h, read-out: Fit Infinite Activity [%]

Structure (SMILES) | activation at 0.307 µM (48 h) [%] | activation at 1.53 µM (48 h) [%] | activation at 7.66 µM (48 h) [%] | activation at 38.3 µM (48 h) [%] | Emax [1] [%] | EC50 [µM] | Emax (read-out: Max Response [%]) [%] | Score (Table 8 Compound data) | Curve Description | Score
COc1cc(NC(=O)CN(C)S(=O)(=O)c2ccc3c(c2)CC(C)N3C(C)=O)cc(OC)c1OC (centres unmarked) [Compound 145] | 0.302 | 0.181 | 15.7 | 70.5 | 70.5 | 10 | 70.5 | – | – | –
CC(=O)c1ccc(N(C(=O)CNC(=O)c2ccco2)C(C(=O)NC2CCCC2)c2ccc(C)o2)cc1 (centres unmarked) [Compound 146] | -20.8 | -20.9 | 0 | 75.5 | 75.5 | 10 | 75.5 | – | – | –
Cc1nnc(NC(=O)CSc2nnc(CCNC(=O)c3ccccc3F)n2C)s1 [Compound 147] | 0.45 | 2.7 | 29.1 | 84.9 | 91.2 | – | 84.9 | – | – | –
COc1ccc(CCNC(=O)Cn2nnc(C(=O)Nc3ccc(Br)cc3)c2N)cc1OC [Compound 148] | -30 | -26.8 | 12.5 | 102 | 110 | – | 102 | – | – | –
C/C(=N\NC(=O)c1cc(C)oc1C)c1ccc2ccccc2c1 [Compound 149] | -0.126 | 8.59 | 37 | 68 | 82.4 | – | 68 | – | – | –
CC(C)c1ccc(NC(=O)CN2C(=O)c3ccccc3S2(=O)=O)cc1 [Compound 150] | 0 | 0.16 | 15.1 | 67.1 | 67.4 | 10 | 67.1 | – | – | –
CCCCC(C(=O)NC1CCCC1)N(C(=O)c1snc(C(N)=O)c1N)c1ccc(C)cc1 (centres unmarked) [Compound 151] | -26.6 | -26 | 2.04 | 63.7 | 65.1 | 10 | 63.7 | – | – | –
COc1ccc(S(=O)(=O)Nc2ccc(S(=O)(=O)Nc3nccs3)cc2)cc1 [Compound 152] | -6.73 | 0 | 26.3 | 67.4 | 88.8 | – | 67.4 | – | – | –
Cc1cc(C(=O)Nc2cccc3ccccc23)c(C)o1 [Compound 153] | -20.8 | -14.3 | 26.2 | 66 | 74.5 | – | 66 | – | – | –
CC1(C)Cc2c(cnn2-c2cccc(F)c2)C(NC(=O)CCc2cnccn2)C1 (centres unmarked) [Compound 154] | -36.1 | -14.4 | 17.9 | 38.9 | 47.5 | – | 38.9 | – | – | –
Cc1c(C(=O)N2CCCCC2)c(S(=O)(=O)Nc2cccc(Br)c2)c(C)n1C [Compound 155] | -32.1 | -31.8 | -9.12 | 60.5 | 60.9 | 10 | 60.5 | – | – | –
O=S(=O)(N/C(=N/C1CCCCC1)c1ccccc1F)c1ccccc1 [Compound 156] | 0 | 0 | 22.9 | 65.3 | 67.8 | 10 | 65.3 | – | – | –
CCCCN(CCCC)CCNC(=O)c1cn(C)c2ccc(S(=O)(=O)N(C)C3CCCCC3)cc2c1=O [Compound 157] | -0.706 | -3.27 | 17.7 | 67.5 | 68.2 | 10 | 67.5 | 42 | – | –
O=[N+]([O-])c1cccc(S(=O)(=O)N2CCN(S(=O)(=O)N3CCOCC3)CC2)c1 [Compound 158] | 0.67 | 0.634 | 26.3 | 65.9 | 70.7 | 10 | 65.9 | – | – | –
CC(=O)Nc1ccc(NC(=O)c2cc(=O)c3cc(C)cc(C)c3o2)cc1 [Compound 159] | -4.25 | -1.91 | 17.1 | 106 | 107 | – | 106 | – | – | –
COc1ccc(/C=C(\NC(=O)c2ccc(C)cc2)C(=O)Nc2ccc(C(=O)O)cc2)cc1 [Compound 160] | -2.5 | -3.36 | 16 | 99.8 | 101 | – | 99.8 | – | – | –
O=S(=O)(c1ccccc1)N1CCCC(c2nc(O)c3nnn(Cc4cccc(Cl)c4)c3n2)C1 (centres unmarked) [Compound 161] | -37 | -17.7 | 22.4 | 48.1 | 55 | – | 48.1 | – | – | –
COc1cccc(NC(=O)c2ccc3c(c2)CCCC3)c1 [Compound 162] | -31.8 | -27.5 | 26.3 | 54.3 | 55.3 | – | 54.3 | – | – | –
CN(C)CCNc1ncnc2sc(-c3ccccc3)cc12 [Compound 163] | -0.804 | -0.389 | 19.4 | 78.1 | 78.3 | 10 | 78.1 | – | – | –
CCCN1C2CCCC1CC(NC(=O)c1cccc([N+](=O)[O-])c1)C2 (centres unmarked) [Compound 164] | 1.16 | 0.0123 | 22 | 91.6 | 91.8 | 10 | 91.6 | – | Partial | 42
O=C(NCCc1ccc(F)cc1)N[C@@H](Cc1ccccc1)C(=O)O [Compound 165] | -20.5 | -20.4 | 0 | 108 | 109 | – | 108 | – | – | –
O=C(CN1CCOCC1)NCc1cc([N+](=O)[O-])ccc1O [Compound 166] | 10.3 | 15.6 | 41.7 | 87.7 | 104 | – | 87.7 | – | – | –
COc1cc(Cl)cc(CN2CCC(CCC(=O)NC3CC3)CC2)c1OC [Compound 167] | -38.2 | -33.5 | 9.56 | 44 | 48.6 | – | 44 | – | – | –
COc1ccccc1C(=O)NCCOc1ccc(C(C)(C)C)cc1 [Compound 168] | – | 0 | 35.8 | 77.8 | 82.9 | – | 77.8 | – | – | –
COc1nccc(NCc2ccccc2)c1C#N [Compound 169] | -18.2 | -21.6 | 0.301 | 64.3 | 64.8 | 10 | 64.3 | – | – | –
Cc1ccc(-c2csnn2)cc1 [Compound 170] | 2.36 | 5.33 | 22.2 | 87.6 | 87.8 | 10 | 87.6 | – | – | –
